Source: patent publication US10696661B2, “Compounds” (Exonate Limited, priority 2015, dated 2020)

What was measured:
[1] = test system: VEGF-A165a / VEGF-A165b mRNA in primary RPE cells and ARPE-19 cells; test: qRT-PCR and conventional PCR of VEGF-A alternative splicing; assay type: cell-based, human; details: FIGS. 8 and 9
Excerpt: Primary human retinal epithelial cells were lysed in Trizol reagent and mRNA was extracted using the method of Chomczynski and Sacchi, or using an RNeasy RNA extraction kit (Qiagen, UK). mRNA was reverse transcribed using Thermoscript reverse transcriptase (Fisher Scientific, UK). The cDNA was amplified using primers designed to amplify the region spanning the proximal and distal splice sites in human VEGF-A165a and VEGF-A165b, to amplify both isoforms and differentiate between them due to the fact that the exon 8b-containing isoform is 66-bp shorter than the exon 8a-containing isoform. The primers used were; 5′-[…]-3′ (SEQ ID NO:2) and 5′-[…]-3′ (SEQ ID NO:3) with the following conditions; 96° C. for 2 min followed by 45 cycles at 96° C.-30 s, 60° C.-30 s and 72° C.-30 s. The PCR mix consisted of DNA: 200 ng, MgCl2 0.25 mM, Primer each […], Taq polymerase 1 unit and dH2O up to 25 μl. Control plasmid concentration: VEGF165a 500 ng and VEGF165b 1 μg. PCR products were run on 3% agarose gels containing 0.5 μg/ml ethidium bromide.
RNA was isolated and reverse transcribed as described above. Quantitative PCR (qPCR) was performed with a LightCycler 480 (Roche) q-PCR machine. The qPCR mix included PCR-grade dH2O 3 PCR Primer (1 μM) 2 μl. […]
VEGF-A alternative splicing was further measured in retinal pigmented epithelial cells by qRT-PCR and conventional PCR.

[2] = test system: laser-induced choroidal neovascularisation (CNV); test: Laser-induced choroidal neovascularisation (CNV) in mice, topical eye drops; assay type: in vivo; details: mouse, eye drop, FIG. 4-7
Experimental: 6-8 week-old female C57/B6 mice were anesthetized with an intraperitoneal injection of a mixture of 50 mg/kg ketamine and 0.5 mg/kg medetomidine. The pupils were immediately dilated by topical (eyedrop) application with a dilator such as 5% phenylephrine hydrochloride and 1% tropicamide. Four photocoagulation lesions were delivered with a green Merilas 532a laser (450 mW, 130 ms) between the “large” retinal vessels in clear space with no vessels in a peripapillary distribution at a distance of 1-2 disc-diameters in each eye. Only clean laser lesions with a subretinal bubble at the time of treatment were included in the study. Immediately following laser photocoagulation the animals were given topical eye drops of candidate compounds twice daily (10 μl, eyes held for 30 seconds to prevent animal wiping drop away).
After one week, mice were anesthetized with an intraperitoneal injection of a mixture of 50 mg/kg ketamine and 0.5 mg/kg medetomidine. The pupils were immediately dilated by topical (eyedrop) application with a dilator such as 5% phenylephrine hydrochloride and 1% tropicamide. Mice were administered an intraperitoneal injection of sodium fluorescein (10%). Phase contrast and green fluorescent fundus images were taken with an angiography microscope and camera with each lesion in focus. […]

[3] = test system: VEGF165b and VEGF165 protein in retinal pigmented epithelial cells; test: VEGF isoform specific ELISA in retinal pigmented epithelial cells; assay type: cell-based, human; details: relative to DMSO control, FIG. 3
Experimental: 96-well clear microplate (high sensitivity thermo immulon or costar 9018) were coated with 100 μL of 10 μg/ml VEGFxxxb or 0.25 μg/ml anti-hVEGF165a per well. The plate was sealed with parafilm and incubated overnight on the shaker at room temp. Each well was aspirated and washed with Wash Buffer (200 μl PBS-Tween 0.05%), two times for a total of three washes. After the last wash, remaining Wash Buffer was removed by inverting the plate and blotting it against clean paper towels. Plates were blocked by adding 100 μl of Reagent Diluent (1% BSA/PBS) to each well and incubated at room temp on a shaker for 2 hours. The aspiration/wash step was repeated. 100 μL of standards or samples in 1% BSA/PBS were added to each well, covered with parafilm and incubated 2 hours at room temperature. The aspiration/wash was repeated and 100 μL of 100 ng/ml Detection Antibody (BAF293), diluted in Reagent Diluent, was added to each well which were covered with parafilm and incubated 2 hours at room temp. The aspiration/wash was repeated and 100 μL of the working dilution of Streptavidin-HRP (1:200 dilution) was added to each well. […] The optical density of each well was measured immediately, using a microplate reader set to 450 nm.
To determine whether these compounds could switch splicing of VEGF isoforms, VEGF was measured in retinal pigmented epithelial cells by isoform specific ELISA.

VEGF165b and VEGF165 = details: cited from earlier work
neovascular AMD = details: treated monthly, 0.5 mg, at one year; cited from earlier work

O=C(Nc1cc(C(F)(F)F)ccc1N1CCN(Cc2cc[nH]n2)CC1)c1ccc(C2CCOCC2)o1 [Compound 14, N-(2-(4-((1H-pyrazol-3-yl)methyl)piperazin-1-yl)-5-(trifluoromethyl)-phenyl)-5-(tetrahydro-2H-pyran-4-yl)furan-2-carboxamide]
VEGF-A165a/VEGF165b mRNA isoform expression ([1]; endothelial cells (figure legend)): decrease | levels of VEGF165b relative to VEGF165 RNA ([1]; primary RPE cells and ARPE-19 cells): switched the levels of VEGF165b relative to VEGF165 RNA by a decrease in VEGF165

O=C(Nc1cc(C(F)(F)F)ccc1N1CCN(Cc2cocn2)CC1)c1ccc(-c2ccncc2)o1 [Compound 17, N-(2-(4-(oxazol-4-ylmethyl)piperazin-1-yl)-5-(trifluoromethyl)phenyl)-5-(pyridin-4-yl)furan-2-carboxamide]
anti-angiogenic activity on lesion size / efficacy compared with reference compound ([2]; listed as N-(2-(4-(oxazol-4-ylmethyl)piperazin-1-yl)-5-(trifluoromethyl)phenyl)-5-(pyridin)): same efficacy | anti-angiogenic activity on lesion size / efficacy compared with reference compound ([2]; listed as compound 17): same anti-angiogenic activity on lesion size and the same efficacy as reference compounds | VEGF165b protein [3]: increase in VEGF165b | VEGF165 protein [3]: not VEGF165 protein

bevicizumab (Avastin): an anti-VEGF antibody from which Lucentis was derived
binding potency to VEGF165b versus VEGF165 (VEGF165b and VEGF165): equal potency

B1: Lucentis: a novel humanized anti-VEGF antibody fragment (antibody, chains of the INN, looked up, V domains shown)
VH: EVQLVESGGGLVQPGGSLRLSCAASGYDFTHYGMNWVRQAPGKGLEWVGWINTYTGEPTYAADFKRRFTFSLDTSKSTAYLQMNSLRAEDTAVYYCAKYPYYYGTSHWYFDVWGQGTLVTVSS
VL: DIQLTQSPSSLSASVGDRVTITCSASQDISNYLNWYQQKPGKAPKVLIYFTSSLHSGVPSRFSGSGSGTDFTLTISSLQPEDFATYYCQQYSTVPWTFGQGTKVEIK
modifications: Fab
notes: a novel humanized anti-VEGF antibody fragment
patients who maintained visual acuity (loss of <15 letters) (neovascular AMD): approximately 95% | patients with improved vision (gain of ≥15 letters) (neovascular AMD): ≤ 40%
